Values quoted from earlier work in patent EP3027215B1, “POWDER FORMULATION OF VALGANCICLOVIR” (Ali Raif Ilaç Sanayi ve Ticaret Anonim Sirketi, priority 2013, dated 2015).

Columns and labels:
[1] = solid form, stored under room temperature conditions
[2] = at pH 7.0

CC(C)[C@H](N)C(=O)OCC(CO)OCn1cnc2c(=O)[nH]c(N)nc21.Cl (stereo partly drawn) [Valganciclovir hydrochloride, L-Valine, 2-[(2-amino-1,6-dihydro-6-oxo-9H-purin-9-yl)methoxy]-3-hydroxypropyl ester, monohydrochloride]
physical, chemical, and light stability [1]: acceptable
n-octanol-water partition coefficient [2]: 0.0095
